Results from patent US4431807A, “4-Methyl-5-(unsubstituted and substituted phenoxy)-6-methoxy-8-(aminoalkylamino)quinolines” (priority 1981, dated 1984).
Like-named read-outs stand apart in the source and are kept apart here.

Legend:
P. cynomolgi = assay: SEATO suppressive test, P. cynomolgi, rhesus monkey (parasitized blood inoculation, no chloroquine); assay type: in vivo, P. cynomolgi in rhesus monkey
Method: Equally significant is the suppressive activity comparison (Part A-2) in the Rhesus monkey. This test differs from the SEATO radical curative test primarily in that parasitemia is induced by intravenous inoculation of parasitized blood (rather than sporozoites) and that chloroquine is not co-administered with the test drug. […] On the other hand, compound 1 is curative at doses down to 1.0 mg/kg/day.

in vivo [1] = conditions: rat, po, Acute Oral LD50, rats
in vivo [2] = conditions: guinea pig, po
in vivo [3] = conditions: mouse, po
[4] = Acute oral toxicity, rats
[5] = Blood schizonticidal (suppressive) test, Rane mouse test, P. berghei; assay type: in vivo, Plasmodium berghei KBG 173 in ICR/HA Swiss mice; conditions: mouse, in vivo, sc
Description: Blood Schizonticidal Test (Mouse), University of Miami, Rane (Suppressive)
This system is based on comparisons of responses to test compounds by Plasmodium berghei KBG 173 malaria in mice as expressed in mean survival times and the mean survival times of untreated controls. Thus, compounds noted as active produce increases in the survival times of the treated animals that are significant when compared with the survival times of untreated controls. Since an established disease is less sensitive to treatment than a disease in the early stages of development, treatment is withheld until the parasitemia is relatively high in order to insure a more reliable assay of activity and the selection of appropriate compounds for intensive preclinical studies.
Utilizing young ICR/HA Swiss mice and a standard inoculum of Plasmodium berghei KBG 173, it is possible to produce a uniform disease fatal to 100% of untreated animals within 6 to 8 days with a mean survival time of 6.2 days. Test animals weigh from 18 to 22 grams but weight variations in any given experimental or control group are confined to 2-3 grams. All animals in any given test are approximately of the same age. Animals on test are housed in metal-topped plastic cages, given a standard laboratory diet and water ad libitum.
Test animals receive an intraperitoneal injection of 0.5 ml of 1:100 dilution of heparinized heart's blood with a minimum of 90% parasitized cells (4×10^7 cells), drawn from donor mice infected one week earlier with Plasmodium berghei. The donor stran is maintained by weekly passages in separate groups of mice inoculated with a 0.5 ml of 1:500 dilution of heparinized heart's blood.
Test compounds are administered after dissolution or suspension in peanut oil. A single dose is given subcutaneously 72 hours after the mice are infected with Plasmodium berghei. At this time a 10-15 percent parasitemia has developed; the disease is well established but has not produced sufficient debility to alter the response of the host to toxic effects of the drug on test. Since treatment is withheld for three days to permit the infection to become well established and death occurs in untreated controls within 6-8 days, it is believed that this system presents a candidate compound with the maximum challenge. In order to check factors such as changes in the infectivity of Plasmodium berghei or in the susceptibility of the host or to detect technical errors, a group of infected animals treated with pyrimethamine at dose levels producing definite increases in survival time is included as a positive control in every experiment.
In each experiment test compounds are administered in graded doses. […] However, if an active drug is toxic for the host, its toxicity may become a limiting factor; continued increases in dose levels also increase the toxic effects and may result in the diminution of survival times. Deaths prior to the sixth day, when untreated controls begin to die, are regarded as non-parasitic and become the basis for toxicity evaluations. Treated animals are kept under observation for 60 days. Survivors at the end of this period of time are considered as cured.
An increase of 100% in mean survival time is considered the minimum effective response for a candidate compound. In calculating mean survival time, toxic deaths and 60 day survivors are not included.
The antimalarial activity data acquired by the two test procedures described above are listed in Tables 2 and 3 for the compounds of this invention. In Table 4, the most promising compound of the series, compound 1, is compared directly with primaquine together with some additional test data for compound 1 compared to primaquine. In all the work reported herein primaquine is used in the form of the diphosphate salt. The test data are expressed in the form of the number of cures at a given dose level. […]

Plasmodium berghei = conditions: cited from earlier work
Plasmodium cynomolgi = conditions: cited from earlier work
[6] = test system: Plasmodium vivax, P. malariae and P. ovale malaria; conditions: cited from earlier work

What does the source list for `COc1cc(NC(C)CCCN)c2nccc(C)c2c1Oc1cccc(C(F)(F)F)c1.O=C(O)CCC(=O)O` (centres unmarked) [Compound 1, 8-(4-Amino-1-methylbutylamino)-6-methoxy-4-methyl-5-(3-trifluoromethylphenoxy)quinoline Succinate]?
minimal effective dose (P. cynomolgi; Plasmodium cynomolgi, in Macaca mulatta, po, curative at doses down to, read-out: Lowest curative dose, suppressive test in rhesus): 1 mg/kg/day; LD50 (in vivo [1]; female): 577 mg/kg; LD50 (in vivo [1]; male): 259 mg/kg; LD50 (in vivo [2]): 174 mg/kg; LD50 (in vivo [3]): 236 mg/kg; LD50 ratio Compound 1/Primaquine ([4]; rats, female): 2.76; LD50 ratio Compound 1/Primaquine ([4]; rats, male): 1.46

For `COc1cc(NC(C)CCCN)c2ncccc2c1` (centres unmarked) [Primaquine Diphosphate, 8-((4-amino-1-methylbutyl)amino)-6-methoxy-quinoline, reference compound], which mortality ([5]; 320 mg/kg × 1, s.c., five mice, Table III, read-out: Toxic (converted)) is on record?
Its mortality is 40%.

What about the mortality ([5]; 640 mg/kg salt, s.c., Table IV A-1, read-out: Toxic deaths (converted)) of the same compound?
Its mortality is 100%.

What about the “Cures, suppressive test in rhesus” value (P. cynomolgi; all doses, oral, × 7 days) of the same compound?
Its value is “No Cures”.

What about the “Suppressive activity in the rhesus” value (P. cynomolgi; in words) of the same compound?
The value was “failed to clear the blood schizonts completely”.

And the “Δ MST” value (Plasmodium berghei; 160 mg/kg, 5 mice, Table I)?
Its value is 9 days.

And the Toxic deaths (Plasmodium berghei; 640 mg/kg, 5 mice, Table I)?
The Toxic deaths was 5T.

And the Suppressive activity (Plasmodium berghei; non-toxic dose levels, prior art comparison)?
The Suppressive activity was “very weak activity”.

What about the Radical curative activity (Plasmodium cynomolgi; 0.316 mg/kg, prior art comparison) of the same compound?
Its Radical curative activity is “inactive”.

And the “Radical curative activity, cures” value (Plasmodium cynomolgi; 1.0 mg/kg (× 7), Table I)?
Its value is 1/2.

And the “% cures (radical curative)” value (Plasmodium cynomolgi; 1.0 mg/kg)?
Its value is 50%.

What about the “% cures (radical curative)” value (Plasmodium cynomolgi; 1.3 mg/kg) of the same compound?
The value was 100%.

What about the “Radical curative (tissue) activity” value ([6]; clinical use) of the same compound?
The value was “effective in clearing the tissues of parasites”.

What about the “Suppressive activity (blood schizonticide)” value ([6]; clinical use) of the same compound?
The value was “relatively ineffective as a blood schizonticide”.

And the Toxicity in man ([6]; single curative dose)?
Its Toxicity in man is “precludes administration of a single curative dose”.

What about the LD50 ([4]; rat, in vivo, po) of the same compound?
The LD50 was 224 mg/kg.

What about the “Acute Oral LD50” value ([4]; rats, male) of the same compound?
Its value is 177 mg/kg.
